# Article PMC11864979, “First-in-class ultralong-target-residence-time p38α inhibitors as a mitosis-targeted therapy for colorectal cancer” (Nature Cancer, 2025)
# Key:
# Test in all cases: selectivity profiling in a panel of 340 wild-type kinases (Reaction Biology Europe)
# Assay type in all cases: binding
# 340 wild-type kinases [1] = molecular target: T1, 340 wild-type kinases (Homo sapiens, UniProt Q9UQM7); conditions: CAMK2A; 0.2 µM; read-out: residual activity
# T1 construct: purchased Reaction Biology Europe
# T1 sequence (Q9UQM7 whole entry): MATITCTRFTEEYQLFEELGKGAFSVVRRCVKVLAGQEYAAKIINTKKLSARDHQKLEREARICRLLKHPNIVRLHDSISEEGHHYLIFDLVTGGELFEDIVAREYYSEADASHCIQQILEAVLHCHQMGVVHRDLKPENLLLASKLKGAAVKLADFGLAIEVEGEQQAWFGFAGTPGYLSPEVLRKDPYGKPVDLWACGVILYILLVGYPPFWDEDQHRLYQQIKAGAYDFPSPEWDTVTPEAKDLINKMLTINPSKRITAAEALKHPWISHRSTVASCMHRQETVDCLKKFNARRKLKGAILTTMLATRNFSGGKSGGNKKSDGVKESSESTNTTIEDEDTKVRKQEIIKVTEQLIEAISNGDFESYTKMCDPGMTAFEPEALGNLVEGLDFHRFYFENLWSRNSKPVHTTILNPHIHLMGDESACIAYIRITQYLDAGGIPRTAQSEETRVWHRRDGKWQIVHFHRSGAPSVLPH
# Excerpt: (§1) Potential interactions between 2015 and 340 wild-type kinases were checked by means of a competition binding assay performed by Reaction Biology Europe (Supplementary Table 15).
# 340 wild-type kinases [2] = molecular target: T2, 340 wild-type kinases (Homo sapiens, UniProt O75582); conditions: 1 µM 2015; read-out: RPS6KA5 residual activity
# T2 construct: purchased Reaction Biology Europe
# T2 sequence (O75582 whole entry): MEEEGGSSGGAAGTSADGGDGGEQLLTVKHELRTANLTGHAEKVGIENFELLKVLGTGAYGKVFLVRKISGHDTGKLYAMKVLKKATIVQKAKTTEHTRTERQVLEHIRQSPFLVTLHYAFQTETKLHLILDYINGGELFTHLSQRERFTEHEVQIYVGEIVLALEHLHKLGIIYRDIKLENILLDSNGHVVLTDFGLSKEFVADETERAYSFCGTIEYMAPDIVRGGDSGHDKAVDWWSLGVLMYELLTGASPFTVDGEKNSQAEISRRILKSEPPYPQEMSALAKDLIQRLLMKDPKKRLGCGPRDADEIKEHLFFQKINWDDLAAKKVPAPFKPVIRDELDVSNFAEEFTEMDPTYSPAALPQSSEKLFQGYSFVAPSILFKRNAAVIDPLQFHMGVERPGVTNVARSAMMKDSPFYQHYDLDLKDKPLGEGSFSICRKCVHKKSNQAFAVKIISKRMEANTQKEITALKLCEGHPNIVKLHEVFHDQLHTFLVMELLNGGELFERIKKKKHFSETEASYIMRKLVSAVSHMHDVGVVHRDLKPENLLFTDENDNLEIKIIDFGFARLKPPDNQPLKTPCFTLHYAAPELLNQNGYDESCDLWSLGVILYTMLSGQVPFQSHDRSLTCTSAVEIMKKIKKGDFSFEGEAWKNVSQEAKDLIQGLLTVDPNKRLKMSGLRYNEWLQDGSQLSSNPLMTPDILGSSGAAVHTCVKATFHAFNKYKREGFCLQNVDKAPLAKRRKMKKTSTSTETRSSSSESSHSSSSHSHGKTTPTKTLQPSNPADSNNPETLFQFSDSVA
# Excerpt: as §1
# 340 wild-type kinases [3] = molecular target: T3, 340 wild-type kinases (Homo sapiens, UniProt Q9NZJ5); conditions: 0.2 µM 2015; read-out: EIF2AK3 residual activity
# T3 construct: purchased Reaction Biology Europe
# T3 sequence (Q9NZJ5 30-1116): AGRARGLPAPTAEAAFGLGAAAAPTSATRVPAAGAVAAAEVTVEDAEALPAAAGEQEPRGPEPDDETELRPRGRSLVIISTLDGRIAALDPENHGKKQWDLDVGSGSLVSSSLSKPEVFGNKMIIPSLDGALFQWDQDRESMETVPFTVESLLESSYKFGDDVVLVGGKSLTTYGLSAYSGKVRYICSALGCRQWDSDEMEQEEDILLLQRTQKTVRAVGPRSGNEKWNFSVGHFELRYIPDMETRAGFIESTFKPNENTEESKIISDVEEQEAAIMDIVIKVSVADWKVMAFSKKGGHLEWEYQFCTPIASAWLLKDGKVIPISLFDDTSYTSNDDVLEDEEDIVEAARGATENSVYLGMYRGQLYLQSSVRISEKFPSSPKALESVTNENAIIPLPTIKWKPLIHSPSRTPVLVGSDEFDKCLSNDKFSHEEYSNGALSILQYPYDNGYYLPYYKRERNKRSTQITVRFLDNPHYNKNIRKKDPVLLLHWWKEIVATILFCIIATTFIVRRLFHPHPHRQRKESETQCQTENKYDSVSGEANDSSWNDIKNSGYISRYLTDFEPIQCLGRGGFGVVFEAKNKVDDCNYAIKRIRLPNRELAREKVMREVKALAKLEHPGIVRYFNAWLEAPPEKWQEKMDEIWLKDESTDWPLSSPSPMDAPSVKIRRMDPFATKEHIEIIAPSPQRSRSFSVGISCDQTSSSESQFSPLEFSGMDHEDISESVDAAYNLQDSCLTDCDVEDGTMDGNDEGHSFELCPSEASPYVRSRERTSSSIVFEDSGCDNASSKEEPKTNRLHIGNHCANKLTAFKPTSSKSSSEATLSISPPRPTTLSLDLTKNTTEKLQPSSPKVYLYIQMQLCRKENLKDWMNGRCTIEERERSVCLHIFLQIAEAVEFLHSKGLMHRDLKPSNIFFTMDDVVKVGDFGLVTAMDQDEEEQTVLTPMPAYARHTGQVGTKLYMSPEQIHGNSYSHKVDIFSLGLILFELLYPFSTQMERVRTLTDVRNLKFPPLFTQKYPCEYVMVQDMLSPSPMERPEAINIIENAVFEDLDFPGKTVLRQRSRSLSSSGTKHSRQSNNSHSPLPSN
# Excerpt: as §1
# 340 wild-type kinases [4] = molecular target: T4, 340 wild-type kinases (Homo sapiens, UniProt P48729); conditions: 1 µM 2015; read-out: CK1alpha1 residual activity
# T4 construct: purchased Reaction Biology Europe
# T4 sequence (P48729 whole entry): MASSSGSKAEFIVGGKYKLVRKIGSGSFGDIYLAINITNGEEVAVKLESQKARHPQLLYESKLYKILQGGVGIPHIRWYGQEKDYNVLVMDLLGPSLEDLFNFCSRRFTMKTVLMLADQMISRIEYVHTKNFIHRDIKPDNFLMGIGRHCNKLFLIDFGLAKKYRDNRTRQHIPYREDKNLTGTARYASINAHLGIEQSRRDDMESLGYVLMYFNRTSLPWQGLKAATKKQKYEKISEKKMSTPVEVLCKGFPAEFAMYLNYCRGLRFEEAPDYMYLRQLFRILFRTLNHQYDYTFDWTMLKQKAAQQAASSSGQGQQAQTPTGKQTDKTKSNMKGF
# Excerpt: as §1
# 340 wild-type kinases [5] = molecular target: T5, 340 wild-type kinases (Homo sapiens, UniProt P25098); conditions: 1 µM 2015; read-out: GRK2 residual activity
# T5 construct: purchased Reaction Biology Europe
# T5 sequence (P25098 1-689): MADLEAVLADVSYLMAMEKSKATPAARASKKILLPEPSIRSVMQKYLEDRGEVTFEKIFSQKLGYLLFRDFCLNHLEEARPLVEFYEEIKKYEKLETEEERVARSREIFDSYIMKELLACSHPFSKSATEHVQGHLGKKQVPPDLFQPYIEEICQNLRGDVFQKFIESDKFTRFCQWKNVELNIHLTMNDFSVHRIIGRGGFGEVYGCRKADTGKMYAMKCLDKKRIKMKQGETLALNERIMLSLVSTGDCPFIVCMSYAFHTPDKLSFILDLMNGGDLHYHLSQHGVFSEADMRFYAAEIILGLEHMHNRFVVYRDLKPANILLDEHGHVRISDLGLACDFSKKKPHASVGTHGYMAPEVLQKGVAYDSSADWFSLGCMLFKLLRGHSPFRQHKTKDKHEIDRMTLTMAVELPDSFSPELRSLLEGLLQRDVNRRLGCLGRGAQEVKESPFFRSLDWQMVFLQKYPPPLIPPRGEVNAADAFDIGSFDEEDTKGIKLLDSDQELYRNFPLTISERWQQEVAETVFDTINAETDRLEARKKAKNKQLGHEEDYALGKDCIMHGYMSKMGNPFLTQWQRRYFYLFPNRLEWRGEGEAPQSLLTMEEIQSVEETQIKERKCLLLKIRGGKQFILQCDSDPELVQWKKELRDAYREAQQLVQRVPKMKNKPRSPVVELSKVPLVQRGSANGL
# Excerpt: as §1
# 340 wild-type kinases [6] = molecular target: T6, 340 wild-type kinases (Homo sapiens, UniProt Q9UPE1); conditions: STK23; 1 µM; read-out: residual activity
# T6 construct: purchased Reaction Biology Europe
# T6 sequence (Q9UPE1 whole entry): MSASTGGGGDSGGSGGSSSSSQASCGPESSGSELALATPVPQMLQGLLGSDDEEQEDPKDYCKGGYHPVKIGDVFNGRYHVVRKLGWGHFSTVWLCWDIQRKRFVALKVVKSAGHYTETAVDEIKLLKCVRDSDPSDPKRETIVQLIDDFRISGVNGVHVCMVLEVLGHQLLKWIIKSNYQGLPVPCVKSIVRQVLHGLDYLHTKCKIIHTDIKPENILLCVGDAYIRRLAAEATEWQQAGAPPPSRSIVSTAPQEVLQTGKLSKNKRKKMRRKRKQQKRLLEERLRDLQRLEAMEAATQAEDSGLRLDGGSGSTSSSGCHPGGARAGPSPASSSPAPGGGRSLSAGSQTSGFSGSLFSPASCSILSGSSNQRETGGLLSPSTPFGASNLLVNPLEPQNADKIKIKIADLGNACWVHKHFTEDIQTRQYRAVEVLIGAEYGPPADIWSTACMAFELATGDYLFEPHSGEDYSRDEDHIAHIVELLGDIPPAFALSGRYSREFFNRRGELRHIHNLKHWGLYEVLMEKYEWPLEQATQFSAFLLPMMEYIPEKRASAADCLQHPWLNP
# Excerpt: as §1
# 340 wild-type kinases [7] = molecular target: T7, 340 wild-type kinases (Homo sapiens, UniProt P11802); conditions: CDK4/CycD1; 1 µM; read-out: residual activity
# T7 construct: purchased Reaction Biology Europe
# T7 sequence (P11802 whole entry): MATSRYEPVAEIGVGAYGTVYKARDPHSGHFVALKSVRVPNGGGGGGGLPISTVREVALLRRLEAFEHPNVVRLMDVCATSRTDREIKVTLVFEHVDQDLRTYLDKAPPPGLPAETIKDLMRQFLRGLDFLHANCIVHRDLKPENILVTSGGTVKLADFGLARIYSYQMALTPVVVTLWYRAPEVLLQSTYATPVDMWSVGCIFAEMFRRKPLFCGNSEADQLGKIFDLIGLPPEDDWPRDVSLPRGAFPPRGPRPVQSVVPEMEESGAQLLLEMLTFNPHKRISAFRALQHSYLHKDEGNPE
# Excerpt: as §1
# 340 wild-type kinases [8] = molecular target: T8, 340 wild-type kinases (Homo sapiens, UniProt Q8NG66); conditions: 0.2 µM 2015; read-out: NEK11 residual activity
# T8 construct: purchased Reaction Biology Europe
# T8 sequence (Q8NG66 1-645): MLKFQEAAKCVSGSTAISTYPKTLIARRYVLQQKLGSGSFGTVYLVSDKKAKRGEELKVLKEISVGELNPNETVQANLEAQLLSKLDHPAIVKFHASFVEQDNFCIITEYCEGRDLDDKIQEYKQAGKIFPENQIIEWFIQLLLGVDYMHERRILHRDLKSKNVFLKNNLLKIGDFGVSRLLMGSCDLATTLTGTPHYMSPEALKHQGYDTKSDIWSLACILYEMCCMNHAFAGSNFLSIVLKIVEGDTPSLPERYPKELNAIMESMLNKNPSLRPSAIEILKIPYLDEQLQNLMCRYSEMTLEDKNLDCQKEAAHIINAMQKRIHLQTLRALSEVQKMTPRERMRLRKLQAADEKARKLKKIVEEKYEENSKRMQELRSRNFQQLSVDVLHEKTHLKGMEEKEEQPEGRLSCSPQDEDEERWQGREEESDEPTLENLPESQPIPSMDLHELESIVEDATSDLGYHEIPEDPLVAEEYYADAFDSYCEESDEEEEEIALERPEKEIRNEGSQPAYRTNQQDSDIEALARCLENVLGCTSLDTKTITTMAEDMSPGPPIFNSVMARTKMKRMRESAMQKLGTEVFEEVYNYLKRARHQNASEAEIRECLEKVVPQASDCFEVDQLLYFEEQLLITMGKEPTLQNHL
# Excerpt: as §1
compound,measurement,setting,value
CNC(=O)c1ccc2c(c1)C(=O)c1ccc(Nc3ccc(F)c(NC(=O)C4CC4)c3)cc1CC2 [Compound 2015],remaining activity at 0.2 µM,340 wild-type kinases [1],102%
same,remaining activity at 1 µM,340 wild-type kinases [2],90.2%
same,remaining activity at 0.2 µM,340 wild-type kinases [3],93.3%
same,remaining activity at 1 µM,340 wild-type kinases [4],94.9%
same,remaining activity at 1 µM,340 wild-type kinases [5],80.8%
same,remaining activity at 1 µM,340 wild-type kinases [6],94.1%
same,remaining activity at 1 µM,340 wild-type kinases [7],98.4%
same,remaining activity at 0.2 µM,340 wild-type kinases [8],91.3%
